Among the data in US20230183265A1, “Crystal Form of Macrocyclic Tyrosine Kinase Inhibitor and Preparation Method therefor” (SHANDONG XUANZHU PHARMA CO., LTD., priority 2020, published 2023) are IC50, T/C and TGI values, retold here.

Assay [1] has as its system Ba/F3 ETV6-NTRK3-G623R cell line. The experiment in a line: In vitro cytological inhibitory activity (CelltiterGlo assay). The conditions noted are these: Mus musculus, BaF3, 72 hours. The format is cell-based. From the text: (§1) Test compound: the compound represented by Formula (I), prepared according to the method in Embodiment 1.
(§2) The meanings of cell lines used in the experiment are as follows: • Ba/F3 LMNA-NTRK1-G595R cell line: • A stably expressed cell line of Ba/F3 cells transfected with LMNA-NTRK1 G595R; and • Ba/F3 ETV6-NTRK3-G623R cell line: • A stably expressed cell line of Ba/F3 cells transfected with ETV6-NTRK3-G623R.
(§3) Experimental Method (CelltiterGlo Assay)
(§4) 1. Cell Culture and Inoculation
(§5) All cells were suspension cells, and all culture mediums were RPM1-1640+10% FBS. The cells were tested in a logarithmic growth phase.
(§6) The cells in the logarithmic growth phase were collected and counted by a […]. A trypan blue exclusion method was used to detect the cell activity, to ensure that the cell activity was above 90%. It was adjusted to the appropriate concentration, and 90 μL of cell suspension was respectively added to a 96-well plate.
(§7) 2. Preparation of Test Compound
(§8) “M” means “mol/L”, “mM” means “mmol/L”, and “μM” means “μmol/L”. […]
(§9) A CellTiter-Glo luminescent cell viability assay (CTG) reagent was molten and a cell plate was balanced to a room temperature for 30 minutes. […] The light signal value was read by a multifunctional microplate reader.
(§10) 1) Inhibition rate (%)=(DMSO solvent control well reading−test compound well reading)/(DMSO solvent control well reading−blank well reading)×[…]; and […]
(In ATP-based viability assays light output follows the ATP content of the culture.)

For assay [2], the system named is Ba/F3 LMNA-NTRK1-G595R cell line. Described as above. Particulars: Mus musculus, BaF3, 72 hours. The format is cell-based.
Description: as §1, §2, §3, §4, §5, §6, §7, §8, §9, §10

For assay [3], the system named is Ba/F3 SLC34A2/ROS1-G2032R cell line. The assay can be described thus: In vitro cytological inhibitory activity (Celltiter-Glo assay). It counts as cell-based. The conditions noted are these: Mus musculus, BaF3, 72 hours. On the procedure:
as §1
The meanings of cell lines used in the experiment are as follows: • Ba/F3 SLC34A2/ROS1-G2032R cell line: • A stably expressed cell line of Ba/F3 cells transfected with SLC34A2/ROS1-G2032R.
Experimental Method (Celltiter-Glo Assay)
as §4, §5
The cells in the logarithmic growth phase were collected and counted by a platelet counter. A trypan blue exclusion method was used to detect the cell activity, as to ensure that the cell activity was above 90%. It was adjusted to the appropriate concentration, and 90 μL of cell suspension was respectively added to a 96-well plate.
as §7
2.2 Preparation of Working Stock Solution of Test Compound […]
A CTG reagent was molten and a cell plate was balanced to a room temperature for 30 minutes. […] The light signal value was read by a multifunctional microplate reader.
1) Cell survival rate (%)=(test compound well reading−blank well reading)/(DMSO solvent control well reading−blank well reading)×100%; and […]

Assay [4] has as its system xenograft tumor of BaF3 LMNA-NTRK1-G595R stably transfected cell line. The assay can be described thus: Efficacy study on BaF3 LMNA-NTRK1-G595R stable cell strain subcutaneous xenograft model. The conditions noted are these: bid, p.o., 7 days. The format is in vivo, mouse (NOD-SCID). On the procedure: Test substance: the compound represented by Formula (I), prepared according to the method in Embodiment 1.
A BaF3LMNA-NTRK1-G595R stably transfected cell line resuspended in a RPM11640 serum-free medium was inoculated subcutaneously on a right scapula of a mouse (nonobese diabetic-severe combined immunodeficiency disease (NOD-SCID)) at 1×10^6 cells/mouse (0.1 ml/mouse).
3.2 Grouping Administration
While the average tumor volume was about 500 mm^3, it was randomly divided into a vehicle group, a compound represented by Formula (I) (10/5/3/1 mg/kg, bid) group and a LOXO-195 group (30/10/3 mg/kg, bid).
3.3 Experimental Evaluation Index
1) Tumor growth inhibition rate TGI (%) • TGI (%)=(1−T/C)×100%
2) Tumor volume ratio of Treatment group/Control group TIC (%) • TIC (%)=TRTV/CRTV×100% • RTV=Vt/V0, herein Vt is the tumor volume on the t-th day after grouping, and V0 is the tumor volume on the day of grouping; TRTV: the average relative tumor volume in the administration group; and CRTV: the average relative tumor volume in the vehicle control group.

Usually IC50 stands for the point on the concentration scale where inhibition reaches its midpoint. For orientation: T/C means the ratio of treated to control. Usually TGI stands for how far tumour growth fell short of that in controls. As for `C[C@@H]1COc2ncc(F)cc2[C@H]2CCCN2c2ccc3ncn(c3n2)C(=O)N1` [Compound represented by Formula (I), (2^2R, 6R)-3^5-fluoro-6-methyl-1^3H-4-oxa-7-aza-1(5,3)-imidazo[4,5-b]pyridina-3(3,2)-pyridina-2(1,2)-pyrrolidina cyclooctaphan-8-one], the IC50 in assay [1] was 1 nM; in assay [2], 0.6 nM; in assay [3], 2.3 nM. Also, the T/C is 73.2% in assay [4] (experiment 1, 3 mg/Kg); 53.7% in assay [4] (experiment 2, 1 mg/Kg); 0% in assay [4] (experiment 2, 5 mg/Kg); 0% in assay [4] (experiment 2, 10 mg/Kg). The TGI in assay [4] (experiment 1, 3 mg/Kg) came to 26.8%; in assay [4] (experiment 2, 1 mg/Kg), 46.3%; in assay [4] (experiment 2, 5 mg/Kg) it was 100%; in assay [4] (experiment 2, 10 mg/Kg), 100%.
